Reference: patent publication US10336702B2, “Pharmaceutically active compounds” (BERGENBIO ASA, priority 2015, dated 2019)

Experiments:
[1] = molecular target: T1, Akt1 (Homo sapiens, UniProt P31749); experiment: Akt activation assay (PDK1-mediated activation, LANCE Ultra crosstide TR-FRET), Akt1; type: biochemical; settings: read-out: Biological Assay 1 IC50 (nM) Akt1
T1 construct: unspecified tag, removed (detagged) (cleaved yes); purchased SignalChem and Proteros (Akt1); Merck Millipore (PDK1) 14-452 (PDK1); none given for Akt1
Description: (§1) Biological Assay 1: Akt Activation Assay
(§2) Addition of a Europium-labelled antibody specific to the phosphopeptide allows energy transfer from the Europium donor to the Ultra Ulight™ acceptor if close enough in proximity.
(§3) Full length active His6-tagged PDK1 was obtained from Merck Millipore (14-452).
(§4) 1× assay buffer (AB): 50 mM HEPES pH 7.5, 1 mM EGTA, 10 mM MgCl2, 0.01% Tween. Immediately before use, DTT to a concentration of 2 mM was added.
(§5) To prepare lipid vesicles: 1 mg/ml PtdIns(3,4,5)P3 solution (in 10 mM HEPES 7.5) was added to 16.7 mg/ml DOPS/DOPC mixture (in 10 mM HEPES pH 7.5) in a ratio of 1:8.3. MilliQ water was added to the solution to generate concentrations of 400 μM DOPS, 400 μM DOPC and 40 μM PtdIns(3,4,5)P3. The mixture was subjected to 5× freeze/thaw cycles and aliquots stored at −20° C.
(§6) 5 μL enzyme in 1×AB was incubated with 2.5 μL test compound. To start the reaction 2.5 μL reaction mix was added which consisted of PDK1, lipid preparations, crosstide and ATP in 1×AB. Final assay concentrations were as follows: 1% DMSO, 5 nM SignalChem Akt1/15 nM SignalChem Akt2/3 nM Signalchem Akt3/5 nM Proteros Akt1/5 nM proteros Akt2/5 nM Proteros Akt3, 5 nM PDK1, 5.5 μM DOPS, 5.5 μM DOPC, 0.55 μM PtdIns(3,4,5)P3, 100 μM ATP, 100 nM LANCE® Ultra Ulight™-Crosstide. After 30 min, the reaction was stopped using 5 μL 40 μM EDTA in 1× Detection buffer for 5 min. For detection, 5 μL 8 nM LANCE® Ultra Europium-anti-phospho-Crosstide antibody in 1× Detection buffer was added to each well and incubated for 1 h. Plates read with the EnVision® Multilabel Plate Reader, excitation at 320 nm and emission at 665 nm and 615 nm. Compound IC50 was determined using a 4-parameter equation.

[2] = molecular target: T2, p-Akt2 in WM115 cells (Homo sapiens, UniProt P31751); experiment: Phospho-Akt cellular SureFire assay, p-Akt2 in WM115 cells; type: cell-based; settings: insulin stimulated, read-out: Biological Assay 2 IC50 (nM) Akt2 WM115
T2 construct: SureFire assays to detect cellular p-Akt1, p-Akt2 and p-Akt3 levels in WM115 cells (Akt2/3) and LNCaP cells (Akt1); endogenous in cells; host or cells: WM115 (ECACC 91061232), insulin-stimulated
From the text: (§7) Biological Assay 2: Phospho-Akt (p-Akt) Cellular SureFire Assays
(§8) The following describes SureFire assays to detect cellular p-Akt1, p-Akt2 and p-Akt3 levels in WM115 cells (Akt2/3) and LNCaP cells (Akt1). In the case of Akt2 and Akt3, Streptavidin-coated donor beads capture a biotinylated anti-mouse antibody that in turn recognises a mouse total Akt antibody which is specific to each isoform. The protein A-conjugated acceptor beads capture an antibody that recognises the phosphoprotein. Similarly in the Akt1 kit, the donor and acceptor beads are used to capture each antibody pair consisting of an antibody that specifically recognises Akt1 as well as an antibody that recognises the phosphoprotein. In each case, close proximity of the beads allows energy transfer from donor to acceptor.
(§9) Custom kit from TGR/Perkin Elmer for Akt2/3 containing anti-(pThr308)Akt antibody and biotinylated anti-mouse capture antibody.
Total Akt2 antibody (NEB UK, 5239)
(§10) WM115 cells (ECACC, 91061232) cultured in MEM culture media (M2279) supplemented with 2 mM L-glutamine (G7513), 1% non-essential amino acids (M7145), 1% sodium pyruvate (S8636) and 10% FBS (F0804)
(§11) Cell treatment: 1×10^5 WM115 cells or 5×10^4 LNCaP cells were seeded into each well of a 96 well poly-D-Lysine coated tissue culture plate and incubated overnight at 37° C.+5% CO2. Media was removed from cells and replaced with assay buffer consisting of the full culture media described above but with 0.1% FBS instead of 10% FBS. Only WM115 cells were stimulated at 37° C.+5% CO2 for 10 min with 5 μL insulin at a final concentration of 100 nM. Cells were incubated with 5 μL of test compound at a final DMSO concentration of 0.3% for 15 min at 37° C.+5% CO2. Cell lysis was carried out according to kit instructions.
(§12) Assay format (performed in subdued lighting): 4 μL cell lysate and 5 μL reaction buffer were incubated together in the dark at room temperature for 2 h. Reaction buffer was supplemented with a 1/5 dilution of activation buffer, a 1/50 dilution of acceptor beads and in the case of the custom kits, antibodies were added at dilutions of 1/20,000 for Akt2 and 1/2,000 for Akt3.
(§13) 2 μL dilution buffer, supplemented with a 1/20 dilution of donor beads was added to each well and incubated for a further 2 h. Plates were read with the EnVision® Multilabel Plate Reader and using the AlphaScreen settings. Compound IC50 was determined using a 4-parameter equation.

[3] = molecular target: T3, p-Akt3 in WM115 cells (Homo sapiens, UniProt Q9Y243); experiment: Phospho-Akt cellular SureFire assay, p-Akt3 in WM115 cells; type: cell-based; settings: insulin stimulated, read-out: Biological Assay 2 IC50 (nM) Akt3 WM115
T3 construct: SureFire assays to detect cellular p-Akt1, p-Akt2 and p-Akt3 levels in WM115 cells (Akt2/3) and LNCaP cells (Akt1); endogenous in cells; host or cells: WM115 (ECACC 91061232), insulin-stimulated
From the text: as §7, §8, §9
Total Akt3 antibody (R&D Systems MAB 1463)
as §10, §11, §12, §13

[4] = molecular target: T4, Akt2 (Homo sapiens, UniProt P31751); experiment: Akt activation assay (PDK1-mediated activation, LANCE Ultra crosstide TR-FRET), Akt2; type: biochemical; settings: read-out: Biological Assay 1 IC50 (nM) Akt2
T4 construct: unspecified tag, removed (detagged) (cleaved yes); purchased SignalChem and Proteros (Akt2); Merck Millipore (PDK1) 14-452 (PDK1); none given for Akt2
Description: as §1, §2, §3, §4, §5, §6

[5] = molecular target: T5, Akt3 (Homo sapiens, UniProt Q9Y243); experiment: Akt activation assay (PDK1-mediated activation, LANCE Ultra crosstide TR-FRET), Akt3; type: biochemical; settings: read-out: Biological Assay 1 IC50 (nM) Akt3
T5 construct: unspecified tag, removed (detagged) (cleaved yes); purchased SignalChem and Proteros (Akt3); Merck Millipore (PDK1) 14-452 (PDK1); none given for Akt3
Description: as §1, §2, §3, §4, §5, §6

T3 sequence (Q9Y243 whole entry): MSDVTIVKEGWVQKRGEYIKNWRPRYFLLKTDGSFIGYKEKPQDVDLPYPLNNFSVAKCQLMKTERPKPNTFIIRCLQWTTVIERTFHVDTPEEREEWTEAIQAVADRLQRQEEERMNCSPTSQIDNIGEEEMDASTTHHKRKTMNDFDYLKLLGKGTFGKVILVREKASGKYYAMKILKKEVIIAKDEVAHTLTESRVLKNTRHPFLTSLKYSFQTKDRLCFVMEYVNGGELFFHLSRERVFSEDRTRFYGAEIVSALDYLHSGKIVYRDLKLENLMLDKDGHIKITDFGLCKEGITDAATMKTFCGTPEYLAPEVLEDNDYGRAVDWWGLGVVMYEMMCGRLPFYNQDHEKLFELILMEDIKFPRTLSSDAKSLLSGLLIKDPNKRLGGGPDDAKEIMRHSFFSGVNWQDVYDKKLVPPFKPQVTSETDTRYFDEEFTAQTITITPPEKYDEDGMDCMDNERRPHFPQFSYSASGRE
T5 sequence (Q9Y243 whole entry): as above
T1 sequence (P31749 whole entry): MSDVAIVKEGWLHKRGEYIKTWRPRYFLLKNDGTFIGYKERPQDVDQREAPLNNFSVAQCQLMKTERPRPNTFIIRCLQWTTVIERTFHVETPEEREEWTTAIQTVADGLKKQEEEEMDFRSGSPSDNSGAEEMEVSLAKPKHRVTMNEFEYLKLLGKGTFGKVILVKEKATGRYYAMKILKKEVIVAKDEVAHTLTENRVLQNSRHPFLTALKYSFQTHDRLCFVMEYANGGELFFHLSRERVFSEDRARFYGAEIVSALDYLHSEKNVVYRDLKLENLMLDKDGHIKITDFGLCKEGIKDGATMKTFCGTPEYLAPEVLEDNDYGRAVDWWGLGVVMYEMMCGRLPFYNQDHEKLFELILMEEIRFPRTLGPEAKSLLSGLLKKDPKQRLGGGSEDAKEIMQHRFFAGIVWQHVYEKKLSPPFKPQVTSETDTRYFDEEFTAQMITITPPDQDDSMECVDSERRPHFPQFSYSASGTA
T2 sequence (P31751 whole entry): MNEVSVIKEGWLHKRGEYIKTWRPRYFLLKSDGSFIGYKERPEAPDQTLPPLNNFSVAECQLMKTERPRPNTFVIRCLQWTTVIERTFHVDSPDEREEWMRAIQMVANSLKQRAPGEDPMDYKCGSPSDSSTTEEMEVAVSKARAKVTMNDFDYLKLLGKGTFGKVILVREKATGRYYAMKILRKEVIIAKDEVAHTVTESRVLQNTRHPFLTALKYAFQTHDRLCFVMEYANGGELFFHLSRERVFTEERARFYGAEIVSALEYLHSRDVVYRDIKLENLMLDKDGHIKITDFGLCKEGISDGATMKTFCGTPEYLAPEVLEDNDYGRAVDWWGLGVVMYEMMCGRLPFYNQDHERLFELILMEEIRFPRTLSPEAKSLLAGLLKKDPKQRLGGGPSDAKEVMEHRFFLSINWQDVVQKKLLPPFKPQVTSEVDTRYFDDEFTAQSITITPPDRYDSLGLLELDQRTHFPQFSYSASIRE
T4 sequence (P31751 whole entry): as above

SMILES | IC50 [1] [nM] | IC50 [2] [nM] | IC50 [3] [nM] | IC50 [4] [nM] | IC50 [5] [nM]
CC(=O)N(C)[C@H]1CC[C@H](CC(=O)Nc2cc(-c3ccccc3F)c(-c3ccc([C@]4(N)C[C@](C)(O)C4)cc3)cn2)CC1 [Example 94, N-(5-(4-(trans-1-amino-3-hydroxy-3-methylcyclobutyl)phenyl)-4-(2-fluorophenyl)pyridin-2-yl)-2-(trans-4-(N-methylacetamido)cyclohexyl)acetamide] | 20000 | 550 | 13 | 120 | 11
CC(=O)N(C)[C@H]1CC[C@H](CC(=O)Nc2cc(-c3ccccc3)c(-c3ccc(C4(N)CCC4)cc3)nn2)CC1 [Example A56, N-(6-(4-(1-aminocyclobutyl)phenyl)-5-phenylpyridazin-3-yl)-2-(trans-4-(N-methylacetamido)cyclohexyl)acetamide] | 11000 | 1300 | 43 | 270 | 7
CC(=O)N(C)[C@H]1CC[C@H](CC(=O)Nc2cnc(-c3ccc(C4(N)CC(F)(F)C4)cc3)c(-c3ccccc3)c2)CC1 [Example 5] | 3900 | 3000 | 61 | 800 | 110
CCC(=O)N(C)[C@H]1CC[C@H](CC(=O)Nc2cc(-c3ccccc3)c(-c3ccc([C@]4(N)C[C@](C)(O)C4)c(F)c3)cn2)CC1 [Example 112, N-(trans-4-(2-((5-(4-(trans-1-amino-3-hydroxy-3-methylcyclobutyl)-3-fluorophenyl)-4-phenylpyridin-2-yl)amino)-2-oxoethyl)cyclohexyl)-N-methylpropionamide] | > 30000 | 3400 | 31 | 1300 | 55
COC(=O)N(C)C1CCC(CC(=O)Nc2cnc(-c3ccc(C4(N)CC(F)C4)cc3)c(-c3ccsc3)c2)CC1 (stereo not drawn) [Example A66, Methyl (trans-4-(2-((6-(4-(trans-1-amino-3-fluorocyclobutyl)phenyl)-5-(thiophen-3-yl)pyridin-3-yl)amino)-2-oxoethyl)cyclohexyl)(methyl)carbamate] | – | 10000 | 420 | 1100 | 44
CCC(=O)N(CC)[C@H]1CC[C@H](CC(=O)Nc2cc(-c3ccccc3)c(-c3ccc([C@]4(N)C[C@](C)(O)C4)cc3)cn2)CC1 [Example 115, N-(trans-4-(2-((5-(4-(trans-1-amino-3-hydroxy-3-methylcyclobutyl)phenyl)-4-phenylpyridin-2-yl)amino)-2-oxoethyl)cyclohexyl)-N-ethylpropionamide] | > 30000 | 1000 | 15 | 330 | 24
CCC(=O)N(C)[C@H]1CC[C@H](CC(=O)Nc2cc(-c3ccccc3F)c(-c3ccc([C@]4(N)C[C@](C)(O)C4)cc3)cn2)CC1 [Example 95, N-(trans-4-(2-((5-(4-(trans-1-amino-3-hydroxy-3-methylcyclobutyl)phenyl)-4-(2-fluorophenyl)pyridin-2-yl)amino)-2-oxoethyl)cyclohexyl)-N-methylpropionamide] | > 22000 | 660 | 17 | 120 | 10
CN(C(=O)C(F)F)[C@H]1CC[C@H](CC(=O)Nc2cc(-c3ccccc3)c(-c3ccc([C@]4(N)C[C@](C)(O)C4)cc3)cn2)CC1 [Example 109, N-(trans-4-(2-((5-(4-(trans-1-amino-3-hydroxy-3-methylcyclobutyl)phenyl)-4-phenylpyridin-2-yl)amino)-2-oxoethyl)cyclohexyl)-2,2-difluoro-N-methylacetamide] | > 30000 | 780 | 13 | 220 | 12
CC(=O)N(C)[C@H]1CC[C@H](CC(=O)Nc2cnc(-c3ccc(C4(N)CC4)cc3)c(-c3ccccc3)c2)CC1 [Example 12, N-(6-(4-(1-aminocyclopropyl)phenyl)-5-phenylpyridin-3-yl)-2-(trans-4-(N-methylacetamido)cyclohexyl)acetamide] | – | 2300 | 220 | 1000 | 84
CCN(C(=O)OC)[C@H]1CC[C@H](CC(=O)Nc2cc(-c3ccccc3)c(-c3ccc([C@]4(N)C[C@](C)(O)C4)cc3)cn2)CC1 [Example 116, Methyl (trans-4-(2-((5-(4-(trans-1-amino-3-hydroxy-3-methylcyclobutyl)phenyl)-4-phenylpyridin-2-yl)amino)-2-oxoethyl)cyclohexyl) (ethyl)carbamate] | > 30000 | 1400 | 72 | 220 | 21
CCN(C(C)=O)[C@H]1CC[C@H](CC(=O)Nc2cc(-c3ccccc3)c(-c3ccc([C@]4(N)C[C@](C)(O)C4)cc3)cn2)CC1 [Example 108, N-(5-(4-(trans-1-amino-3-hydroxy-3-methylcyclobutyl)phenyl)-4-phenylpyridin-2-yl)-2-(trans-4-(N-ethylacetamido)cyclohexyl)acetamide] | – | 670 | 16 | 220 | 10
CC(=O)N(C)[C@H]1CC[C@H](CC(=O)Nc2cc(-c3ccccc3)c(-c3ccc([C@]4(N)C[C@H](F)C4)cc3)nn2)CC1 [Example 46, N-(6-(4-(trans-1-amino-3-fluorocyclobutyl)phenyl)-5-phenylpyridazin-3-yl)-2-(trans-4-(N-methylacetamido)cyclohexyl)acetamide] | 11000 | 2600 | 46 | 440 | 100
NC1(c2ccc(-c3ncc(NC(=O)C(F)C4CCN(S(=O)(=O)C5CC5)CC4)cc3-c3ccccc3)cc2)CCC1 (centres unmarked) [Example 40, N-(6-(4-(1-aminocyclobutyl)phenyl)-5-phenylpyridin-3-yl)-2-(1-(cyclopropylsulfonyl)piperidin-4-yl)-2-fluoroacetamide] | 9800 | 2900 | 220 | 440 | 360
